Target: sn-1-specific diacylglycerol lipase ABHD11 (Mus musculus) (UniProt Q8K4F5)
Test: ABHD11 inhibition in proteome, IC50 – biochemical, gel-based fluorescent ABPP, mouse, set 2, selectivity assay for LYPLA1 inhibitor project, late-stage follow-up (AID 504507)
Conditions: fluorescent probe labeling

Sequence of sn-1-specific diacylglycerol lipase ABHD11 (Mus musculus) (Q8K4F5 whole entry, looked up): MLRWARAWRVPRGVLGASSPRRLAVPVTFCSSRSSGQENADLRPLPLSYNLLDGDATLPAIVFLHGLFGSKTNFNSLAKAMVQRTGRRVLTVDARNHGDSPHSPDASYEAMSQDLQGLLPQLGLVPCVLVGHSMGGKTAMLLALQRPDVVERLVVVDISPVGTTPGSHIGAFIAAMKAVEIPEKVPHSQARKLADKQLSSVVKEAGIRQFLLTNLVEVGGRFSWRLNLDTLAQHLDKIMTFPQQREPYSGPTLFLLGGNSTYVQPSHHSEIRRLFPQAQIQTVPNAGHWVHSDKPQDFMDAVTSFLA

Row | IC50 | Structure (SMILES)
1 | 15 nM | CCC1CCCCN1C(=O)n1ncc(C(O)(c2ccccc2)c2ccccc2)n1 (configuration not stated)
2 | 1 nM | COCC1CCCCN1C(=O)n1ncc(C(O)(c2ccccc2)c2ccccc2)n1 (configuration not stated)
